According to the kinase profiling compilation of Christmann-Franck et al. (2016):

Experiments:
Test in all cases: radiometric filter-binding kinase assay
CLK2 (human) = CLK2 (human) (UniProt P49760); details: compound 10.0 µM
HIPK3 (human) = HIPK3 (human) (UniProt Q9H422)
STK3 (human) = STK3 (human) (UniProt Q13188)
PRKCZ (human) = PRKCZ (human) (UniProt Q05513)
JAK2 JH1 JH2 (human) = JAK2 JH1 JH2 (human) (UniProt O60674); details: compound 10.0 µM
MST4 (human) = MST4 (human) (UniProt Q9P289); details: compound 10.0 µM
MAP3K5 (human) = MAP3K5 (human) (UniProt Q99683); details: compound 10.0 µM
PLK1 (human) = PLK1 (human) (UniProt P53350)
MARK3 (human) = MARK3 (human) (UniProt P27448)
PRKCA (human) = PRKCA (human) (UniProt P17252)
FLT1 (human) = FLT1 (human) (UniProt P17948); details: compound 10.0 µM
NUAK1 (human) = NUAK1 (human) (UniProt O60285); details: compound 10.0 µM
MAPK1 (human) = MAPK1 (human) (UniProt P28482)
RPS6KA5 KD1 KD2 (human) = RPS6KA5 KD1 KD2 (human) (UniProt O75582)
TAOK1 (human) = TAOK1 (human) (UniProt Q7L7X3); details: compound 10.0 µM
HIPK1 (human) = HIPK1 (human) (UniProt Q86Z02); details: compound 10.0 µM
EPHB4 (human) = EPHB4 (human) (UniProt P54760); details: compound 10.0 µM
ERBB4 (human) = ERBB4 (human) (UniProt Q15303); details: compound 10.0 µM
BRSK2 (human) = BRSK2 (human) (UniProt Q8IWQ3)
Sequence of BRSK2 (human) (Q8IWQ3 whole entry, looked up): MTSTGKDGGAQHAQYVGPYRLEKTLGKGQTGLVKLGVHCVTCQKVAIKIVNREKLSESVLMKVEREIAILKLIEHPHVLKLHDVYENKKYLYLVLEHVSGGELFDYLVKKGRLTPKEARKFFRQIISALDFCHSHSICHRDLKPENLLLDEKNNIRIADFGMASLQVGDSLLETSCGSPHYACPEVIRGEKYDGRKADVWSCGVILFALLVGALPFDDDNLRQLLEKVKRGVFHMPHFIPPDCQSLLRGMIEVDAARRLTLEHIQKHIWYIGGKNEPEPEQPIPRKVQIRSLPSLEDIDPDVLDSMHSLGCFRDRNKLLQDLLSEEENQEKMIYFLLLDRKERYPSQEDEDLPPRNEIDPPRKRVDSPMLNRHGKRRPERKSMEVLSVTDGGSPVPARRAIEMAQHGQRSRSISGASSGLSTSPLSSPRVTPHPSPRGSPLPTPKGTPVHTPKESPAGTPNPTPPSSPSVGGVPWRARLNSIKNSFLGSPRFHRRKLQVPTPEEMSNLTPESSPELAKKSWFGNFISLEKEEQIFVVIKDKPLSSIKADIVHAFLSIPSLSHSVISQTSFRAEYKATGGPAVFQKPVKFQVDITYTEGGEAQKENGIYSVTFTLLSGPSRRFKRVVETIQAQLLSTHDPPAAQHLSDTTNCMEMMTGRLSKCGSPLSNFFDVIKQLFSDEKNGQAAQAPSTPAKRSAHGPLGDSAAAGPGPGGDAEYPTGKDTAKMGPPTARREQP

AURKA (human) = AURKA (human) (UniProt O14965); details: compound 10.0 µM
SRC (human) = SRC (human) (UniProt P12931)
MAPK3 (human) = MAPK3 (human) (UniProt P27361)
MAP3K1 (human) = MAP3K1 (human) (UniProt Q13233); details: compound 10.0 µM
EEF2K (human) = EEF2K (human) (UniProt O00418)
CDK2 CCNA2 (human) = CDK2 CCNA2 (human) (UniProt P20248+P24941)
PAK6 (human) = PAK6 (human) (UniProt Q9NQU5)
Sequence of PAK6 (human) (Q9NQU5 whole entry, looked up): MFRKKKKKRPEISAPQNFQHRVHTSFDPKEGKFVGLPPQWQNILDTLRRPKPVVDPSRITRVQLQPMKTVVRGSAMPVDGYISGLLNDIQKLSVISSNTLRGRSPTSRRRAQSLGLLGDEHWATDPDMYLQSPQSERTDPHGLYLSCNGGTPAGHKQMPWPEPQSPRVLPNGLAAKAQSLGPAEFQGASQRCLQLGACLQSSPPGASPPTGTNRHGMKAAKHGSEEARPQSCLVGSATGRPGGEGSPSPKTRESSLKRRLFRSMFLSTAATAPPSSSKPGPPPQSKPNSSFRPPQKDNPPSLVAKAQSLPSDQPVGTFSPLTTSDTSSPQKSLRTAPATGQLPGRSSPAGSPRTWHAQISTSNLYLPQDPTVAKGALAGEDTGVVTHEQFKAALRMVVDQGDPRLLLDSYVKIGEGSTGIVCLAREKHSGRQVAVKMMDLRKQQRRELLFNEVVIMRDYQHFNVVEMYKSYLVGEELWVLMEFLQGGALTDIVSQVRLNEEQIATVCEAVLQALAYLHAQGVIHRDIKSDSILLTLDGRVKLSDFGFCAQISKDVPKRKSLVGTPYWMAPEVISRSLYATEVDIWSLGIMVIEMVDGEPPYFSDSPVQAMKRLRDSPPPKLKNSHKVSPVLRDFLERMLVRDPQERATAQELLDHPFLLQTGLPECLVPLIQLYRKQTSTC

GCK (human) = GCK (human) (UniProt Q12851); details: compound 10.0 µM
MARK4 (human) = MARK4 (human) (UniProt Q96L34); details: compound 10.0 µM
CHEK2 (human) = CHEK2 (human) (UniProt O96017)
Sequence of CHEK2 (human) (O96017 whole entry, looked up): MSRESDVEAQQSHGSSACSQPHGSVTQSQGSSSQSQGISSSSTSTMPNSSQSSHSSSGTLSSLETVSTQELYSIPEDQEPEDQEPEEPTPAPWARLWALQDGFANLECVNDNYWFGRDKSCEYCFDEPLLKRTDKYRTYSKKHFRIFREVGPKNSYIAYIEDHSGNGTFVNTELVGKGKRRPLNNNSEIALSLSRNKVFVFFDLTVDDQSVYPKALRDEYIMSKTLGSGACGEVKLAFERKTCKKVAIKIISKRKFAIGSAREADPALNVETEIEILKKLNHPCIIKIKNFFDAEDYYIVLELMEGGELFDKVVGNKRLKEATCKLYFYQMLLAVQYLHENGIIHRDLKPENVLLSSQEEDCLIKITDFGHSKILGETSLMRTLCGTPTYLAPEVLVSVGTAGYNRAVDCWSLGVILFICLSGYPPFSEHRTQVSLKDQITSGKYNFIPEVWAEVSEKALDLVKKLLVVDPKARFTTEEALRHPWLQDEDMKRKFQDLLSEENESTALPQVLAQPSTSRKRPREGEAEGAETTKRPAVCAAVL

RPS6KA3 KD1 KD2 (human) = RPS6KA3 KD1 KD2 (human) (UniProt P51812)
[1] = test system: SGK1 (human), O00141 [S422D]
Sequence of SGK1 (human), O00141 [S422D] (O00141 whole entry S422D, looked up): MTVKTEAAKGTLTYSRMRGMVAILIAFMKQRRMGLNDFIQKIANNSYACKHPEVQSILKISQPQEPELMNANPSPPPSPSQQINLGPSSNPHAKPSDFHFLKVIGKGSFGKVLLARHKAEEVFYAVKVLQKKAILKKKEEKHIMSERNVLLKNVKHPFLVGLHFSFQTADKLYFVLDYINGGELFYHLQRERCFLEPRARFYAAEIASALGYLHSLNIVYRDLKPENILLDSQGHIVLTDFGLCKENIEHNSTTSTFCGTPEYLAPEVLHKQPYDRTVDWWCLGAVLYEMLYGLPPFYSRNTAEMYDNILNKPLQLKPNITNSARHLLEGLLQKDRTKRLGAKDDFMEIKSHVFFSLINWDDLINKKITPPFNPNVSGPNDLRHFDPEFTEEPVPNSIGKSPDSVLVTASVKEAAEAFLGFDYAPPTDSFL

DAPK1 (human) = DAPK1 (human) (UniProt P53355); details: compound 10.0 µM
NTRK1 (human) = NTRK1 (human) (UniProt P04629); details: compound 10.0 µM
CHEK1 (human) = CHEK1 (human) (UniProt O14757)
Sequence of CHEK1 (human) (O14757 whole entry, looked up): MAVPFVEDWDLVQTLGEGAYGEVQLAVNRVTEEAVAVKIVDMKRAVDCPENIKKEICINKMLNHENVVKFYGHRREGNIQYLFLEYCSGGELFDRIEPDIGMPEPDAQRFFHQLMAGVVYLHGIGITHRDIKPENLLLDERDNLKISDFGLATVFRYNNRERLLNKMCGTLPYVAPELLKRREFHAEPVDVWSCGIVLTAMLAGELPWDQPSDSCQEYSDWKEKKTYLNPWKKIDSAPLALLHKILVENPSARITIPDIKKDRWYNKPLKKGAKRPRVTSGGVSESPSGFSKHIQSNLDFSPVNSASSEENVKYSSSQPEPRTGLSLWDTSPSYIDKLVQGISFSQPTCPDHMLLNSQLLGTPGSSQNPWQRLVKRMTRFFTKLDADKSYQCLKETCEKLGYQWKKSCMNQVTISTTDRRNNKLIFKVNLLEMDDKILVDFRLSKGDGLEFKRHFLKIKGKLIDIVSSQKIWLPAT

RPS6KA1 KD1 KD2 (human) = RPS6KA1 KD1 KD2 (human) (UniProt Q15418)
Sequence of RPS6KA1 KD1 KD2 (human) (Q15418 whole entry, looked up): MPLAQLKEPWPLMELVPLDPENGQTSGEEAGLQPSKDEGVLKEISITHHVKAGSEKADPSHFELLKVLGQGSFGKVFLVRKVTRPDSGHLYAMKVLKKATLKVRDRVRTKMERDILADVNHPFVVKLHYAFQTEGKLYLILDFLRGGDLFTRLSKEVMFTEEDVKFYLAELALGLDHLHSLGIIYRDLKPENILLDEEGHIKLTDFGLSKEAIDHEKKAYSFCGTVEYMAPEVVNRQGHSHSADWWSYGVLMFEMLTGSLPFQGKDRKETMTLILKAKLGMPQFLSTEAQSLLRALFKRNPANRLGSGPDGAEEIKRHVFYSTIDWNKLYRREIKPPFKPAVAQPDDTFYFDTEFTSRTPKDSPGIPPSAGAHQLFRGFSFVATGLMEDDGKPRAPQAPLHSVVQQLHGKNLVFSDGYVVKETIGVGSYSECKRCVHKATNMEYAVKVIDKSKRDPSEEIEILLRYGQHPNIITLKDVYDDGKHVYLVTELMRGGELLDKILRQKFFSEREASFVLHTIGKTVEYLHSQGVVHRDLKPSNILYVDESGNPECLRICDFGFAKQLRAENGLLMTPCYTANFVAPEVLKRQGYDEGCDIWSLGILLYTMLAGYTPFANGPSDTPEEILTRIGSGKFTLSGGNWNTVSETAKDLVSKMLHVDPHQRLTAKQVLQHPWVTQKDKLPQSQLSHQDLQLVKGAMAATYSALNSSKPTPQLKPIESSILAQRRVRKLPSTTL

Sequence of PRKCZ (human) (Q05513 whole entry, looked up): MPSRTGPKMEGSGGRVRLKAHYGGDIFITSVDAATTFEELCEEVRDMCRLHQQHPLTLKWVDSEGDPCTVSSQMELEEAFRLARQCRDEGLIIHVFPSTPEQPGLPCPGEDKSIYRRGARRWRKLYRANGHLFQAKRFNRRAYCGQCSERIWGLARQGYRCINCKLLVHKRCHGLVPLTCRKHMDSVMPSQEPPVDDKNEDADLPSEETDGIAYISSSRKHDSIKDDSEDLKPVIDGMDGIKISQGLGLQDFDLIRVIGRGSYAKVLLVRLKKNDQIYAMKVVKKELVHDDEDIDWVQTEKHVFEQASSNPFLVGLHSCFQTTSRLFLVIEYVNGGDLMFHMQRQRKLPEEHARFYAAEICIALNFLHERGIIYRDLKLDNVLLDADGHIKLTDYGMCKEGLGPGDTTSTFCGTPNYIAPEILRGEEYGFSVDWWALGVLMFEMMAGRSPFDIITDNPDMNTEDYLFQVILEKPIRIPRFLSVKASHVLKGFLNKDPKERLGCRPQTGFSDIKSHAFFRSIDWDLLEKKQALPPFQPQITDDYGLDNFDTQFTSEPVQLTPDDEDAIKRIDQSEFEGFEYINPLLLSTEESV
Sequence of STK3 (human) (Q13188 whole entry, looked up): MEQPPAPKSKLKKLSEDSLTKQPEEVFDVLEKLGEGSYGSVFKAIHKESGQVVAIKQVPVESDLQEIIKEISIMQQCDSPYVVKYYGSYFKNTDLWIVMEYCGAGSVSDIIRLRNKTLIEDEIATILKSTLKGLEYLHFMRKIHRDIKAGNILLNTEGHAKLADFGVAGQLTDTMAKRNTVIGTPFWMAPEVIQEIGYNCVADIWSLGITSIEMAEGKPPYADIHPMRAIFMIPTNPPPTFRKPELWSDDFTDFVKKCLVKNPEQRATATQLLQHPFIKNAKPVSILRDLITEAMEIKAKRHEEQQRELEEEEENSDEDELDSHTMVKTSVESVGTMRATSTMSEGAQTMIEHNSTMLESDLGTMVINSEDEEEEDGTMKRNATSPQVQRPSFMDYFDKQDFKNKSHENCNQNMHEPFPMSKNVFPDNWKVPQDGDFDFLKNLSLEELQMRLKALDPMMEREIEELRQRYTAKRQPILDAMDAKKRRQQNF

Oc1ccc(/C=C/c2cc(O)cc(O)c2)cc1 gave a residual activity (CLK2 (human)) of 55%, a residual activity (HIPK3 (human); compound 1.0 µM) of 93% and a residual activity (HIPK3 (human); compound 10.0 µM) of 41%. The residual activity (HIPK3 (human); compound 50.0 µM) was 12%, the residual activity (STK3 (human); compound 1.0 µM) was 84% and the residual activity (STK3 (human); compound 10.0 µM) was 69%. It also gave a residual activity (STK3 (human); compound 50.0 µM) of 28%, a residual activity (PRKCZ (human); compound 1.0 µM) of 128% and a residual activity (PRKCZ (human); compound 10.0 µM) of 105%. For the same compound, the residual activity (PRKCZ (human); compound 50.0 µM) was 99%, the residual activity (JAK2 JH1 JH2 (human)) was 27% and the residual activity (MST4 (human)) was 68%. The residual activity (MAP3K5 (human)) was 77%, the residual activity (PLK1 (human); compound 1.0 µM) was 90% and the residual activity (PLK1 (human); compound 10.0 µM) was 87%. The residual activity (PLK1 (human); compound 50.0 µM) was 78%, the residual activity (MARK3 (human); compound 1.0 µM) was 99% and the residual activity (MARK3 (human); compound 10.0 µM) was 82%. It also gave a residual activity (MARK3 (human); compound 50.0 µM) of 41%, a residual activity (PRKCA (human); compound 1.0 µM) of 96% and a residual activity (PRKCA (human); compound 10.0 µM) of 82%. For the same compound, the residual activity (PRKCA (human); compound 50.0 µM) was 58%, the residual activity (FLT1 (human)) was 51% and the residual activity (NUAK1 (human)) was 68%. It also gave a residual activity (MAPK1 (human); compound 1.0 µM) of 102%, a residual activity (MAPK1 (human); compound 10.0 µM) of 79% and a residual activity (MAPK1 (human); compound 50.0 µM) of 100%. It also gave a residual activity (RPS6KA5 KD1 KD2 (human); compound 1.0 µM) of 80%, a residual activity (RPS6KA5 KD1 KD2 (human); compound 10.0 µM) of 65% and a residual activity (RPS6KA5 KD1 KD2 (human); compound 50.0 µM) of 16%. For the same compound, the residual activity (TAOK1 (human)) was 32%, the residual activity (HIPK1 (human)) was 48% and the residual activity (EPHB4 (human)) was 99%. For the same compound, the residual activity (ERBB4 (human)) was 59%, the residual activity (BRSK2 (human); compound 1.0 µM) was 54% and the residual activity (BRSK2 (human); compound 10.0 µM) was 50%. The residual activity (BRSK2 (human); compound 50.0 µM) was 13%, the residual activity (AURKA (human)) was 100% and the residual activity (SRC (human); compound 1.0 µM) was 108%. The residual activity (SRC (human); compound 10.0 µM) was 81%, the residual activity (SRC (human); compound 50.0 µM) was 47% and the residual activity (MAPK3 (human); compound 1.0 µM) was 101%. It also gave a residual activity (MAPK3 (human); compound 10.0 µM) of 88%, a residual activity (MAPK3 (human); compound 50.0 µM) of 92% and a residual activity (MAP3K1 (human)) of 90%. For the same compound, the residual activity (EEF2K (human); compound 1.0 µM) was 95%, the residual activity (EEF2K (human); compound 10.0 µM) was 69% and the residual activity (EEF2K (human); compound 50.0 µM) was 87%. The residual activity (CDK2 CCNA2 (human); compound 1.0 µM) was 103%, the residual activity (CDK2 CCNA2 (human); compound 10.0 µM) was 59% and the residual activity (CDK2 CCNA2 (human); compound 50.0 µM) was 34%. For the same compound, the residual activity (PAK6 (human); compound 1.0 µM) was 108%, the residual activity (PAK6 (human); compound 10.0 µM) was 106% and the residual activity (PAK6 (human); compound 50.0 µM) was 100%. The residual activity (GCK (human)) was 73%, the residual activity (MARK4 (human)) was 99% and the residual activity (CHEK2 (human); compound 1.0 µM) was 84%. For the same compound, the residual activity (CHEK2 (human); compound 10.0 µM) was 79%, the residual activity (CHEK2 (human); compound 50.0 µM) was 14% and the residual activity (RPS6KA3 KD1 KD2 (human); compound 1.0 µM) was 77%. For the same compound, the residual activity (RPS6KA3 KD1 KD2 (human); compound 10.0 µM) was 72%, the residual activity (RPS6KA3 KD1 KD2 (human); compound 50.0 µM) was 18% and the residual activity ([1]; compound 1.0 µM) was 79%. The residual activity ([1]; compound 10.0 µM) was 94%, the residual activity ([1]; compound 50.0 µM) was 23% and the residual activity (DAPK1 (human)) was 62%. For the same compound, the residual activity (NTRK1 (human)) was 67%, the residual activity (CHEK1 (human); compound 1.0 µM) was 95% and the residual activity (CHEK1 (human); compound 10.0 µM) was 79%. For the same compound, the residual activity (CHEK1 (human); compound 50.0 µM) was 29%, the residual activity (RPS6KA1 KD1 KD2 (human); compound 1.0 µM) was 77% and the residual activity (RPS6KA1 KD1 KD2 (human); compound 10.0 µM) was 63%. It also gave a residual activity (RPS6KA1 KD1 KD2 (human); compound 50.0 µM) of 15%.
